Test results taken from paper PMC4133124 (Clinical pharmacokinetics, 2014).
Where two headings read alike, the source gives them in different places.

Experiments:
[1] = system: engraftment of single unit UCB transplants; conditions: single unit UCB HCT, sitagliptin 600 mg OD days −1 to +2; cited from earlier work
[2] = 600 mg OD, HCT population; ref Farag, S.S. et al. [9]; cited from earlier work
[3] = cited from earlier work
[4] = Sitagliptin plasma pharmacokinetics in adults after single-unit UCB HCT; type: in vivo, human
[5] = cited from earlier work; remark: listed apart in the source
[6] = Sitagliptin pharmacokinetics published in the literature; type: in vivo, human; conditions: comparison with ref 9
[7] = 83 mg OD, ref Vincent, S.H. et al. [12]
[8] = 100 mg OD, ref Herman, G.A. et al. [14]
[9] = 100 mg OD, ref Kim, B.H. et al. [13]
[10] = 200 mg BID, ref Herman, G.A. et al. [16]
[11] = 600 mg OD, ref Bergman, A.J. et al. [10]
[12] = 600 mg OD, ref Herman, G.A. et al. [11]
[13] = bootstrap analysis median [5 – 95th percentiles], 200 data sets
[14] = population estimate (RSE%), 600 mg OD oral, HCT patients

N[C@@H](CC(=O)N1CCn2c(nnc2C(F)(F)F)C1)Cc1cc(F)c(F)cc1F [sitagliptin]
median time to engraftment [1]: 21 days
AUC0-∞ [2]: 11661 ng·h/mL
Cmax [2]: 1690 ng/mL
AUC0-∞ [3, 7]: 2460.15 ng·h/mL
Cmax [3, 7]: 309.14 ng/mL
AUC0-∞ ([3]; 100 mg OD, ref Bergman, A. et al. [15]): 3470.28 ng·h/mL
AUC0-∞ ([3]; 100 mg OD, ref Bergman, A. et al. [17]): 3217.74 ng·h/mL
AUC0-∞ [3, 8]: 3523.23 ng·h/mL
Cmax [3, 8]: 390.61 ng/mL
AUC0-∞ [3, 9]: 2407.23 ng·h/mL
Cmax [3, 9]: 383.17 ng/mL
AUC0-12 (column AUC0-∞, footnote b) [3, 10]: 5987.45 ^b ng·h/mL
Cmax [3, 10]: 928.66 ng/mL
AUC0-24 (column AUC0-∞, footnote a) [3, 11]: 22772.81 ^a ng·h/mL
Cmax [3, 11]: 3156.65 ng/mL
AUC0-∞ [3, 12]: 22402.05 ng·h/mL
Cmax [3, 12]: 3437.7 ng/mL
renal elimination ([3]; glomerular filtration and active secretion): 87%
administered dose metabolized via CYP3A and 2C8 ([3]; healthy volunteers and patients with type 2 diabetes mellitus): 16%
bioavailability ([3]; healthy volunteers): 87%
VC/F (second line so labelled, row r8) [4, 13]: 207.51 [160.11 – 249.82] L
ka [4, 13]: 0.22 [0.20 – 0.25] h^−1
Vd/F ([4]; human, plasma, po, 600 mg): 176 L
sitagliptin pharmacokinetics in the HCT population lower than published profiles ([4]; in vivo): ~ 50%
CL/F, total apparent oral clearance [4, 14]: 84.79 (11.91) L/h
Q/F, inter-compartmental distribution clearance [4, 14]: 14.29 (13.25) L/h
VC/F (second line so labelled, row r8) [4, 14]: 217.62 (13.19) L
ka, first order rate constant of absorption [4, 14]: 0.22 (7.47) h^−1
protein-bound [5]: 34–46%
clearance (dose/AUC0-∞) in non-HCT populations lower than in HCT (Farag et al.) [6]: 50%
